Converted amounts (≈) assume the structure as drawn.
Tests used:
Staphylococcus aureus = experiment: In vitro minimum inhibitory concentration against Staphylococcus aureus (20 strains); type: functional
Pseudomonas aeruginosa = experiment: In vitro for minimum inhibitory concentration against Pseudomonas aeruginosa (40 strains); type: functional

MIC (Staphylococcus aureus)	MIC (Pseudomonas aeruginosa)	Compound
3.6 µg/mL (≈ 4.89 µM)	0.12 µg/mL (≈ 0.163 µM)	N#Cc1ccc(C(O/N=C(\C(=O)N[C@@H]2C(=O)N3C(C(=O)[O-])C(/C=C/C[n+]4cccc5ccsc54)CS[C@H]23)c2csc(N)n2)C(=O)O)c(O)c1O (stereo partly drawn)
1.4 µg/mL (≈ 1.9 µM)	0.06 µg/mL (≈ 0.0815 µM)	N#Cc1cc(C(O/N=C(\C(=O)N[C@@H]2C(=O)N3C(C(=O)[O-])C(/C=C/C[n+]4cccc5ccsc54)CS[C@H]23)c2csc(N)n2)C(=O)O)cc(O)c1O (stereo partly drawn)
0.17 µg/mL (≈ 0.231 µM)	38 µg/mL (≈ 51.6 µM)	N#Cc1sc(C(O/N=C(\C(=O)N[C@@H]2C(=O)N3C(C(=O)[O-])C(/C=C/C[n+]4cccc5ccccc54)CS[C@H]23)c2csc(N)n2)C(=O)O)c(O)c1O (stereo partly drawn)
0.92 µg/mL (≈ 1.29 µM)	3.12 µg/mL (≈ 4.38 µM)	Nc1nc(/C(=N/OC(C(=O)O)c2cc(O)c(O)cn2)C(=O)N[C@@H]2C(=O)N3C(C(=O)[O-])C(/C=C/C[n+]4cccc5ccsc54)CS[C@H]23)cs1 (stereo partly drawn)

From ChEMBL document CHEMBL1133392, “Synthesis of a dihydroxythiophene analogue of catechosporines” (2000)
